Reference: paper PMC3914206

What was measured:
Format in all cases: binding
panel of 442 kinases [1] = molecular target: T1, panel of 442 kinases (Homo sapiens, UniProt P41240); settings: Compound Concentration 10 µM
T1 construct: purchased KINOMEscan
Excerpt: (§1) We assessed the selectivity of members of this scaffold using the KINOMEscan methodology across a near comprehensive panel of 442 kinases [[18,27]].

panel of 442 kinases [2] = molecular target: T2, panel of 442 kinases (Homo sapiens, UniProt Q8TDR2); settings: kinase STK35; compound concentration 10 µM
T2 construct: purchased KINOMEscan
Excerpt: as §1

panel of 442 kinases [3] = molecular target: T3, panel of 442 kinases (Homo sapiens, UniProt Q9NY57); settings: kinase YANK2; compound concentration 10 µM
T3 construct: purchased KINOMEscan
Excerpt: as §1

panel of 442 kinases [4] = molecular target: T4, panel of 442 kinases (Homo sapiens, UniProt P07949, V804L); settings: Compound Concentration 10 µM
T4 construct: purchased KINOMEscan
Excerpt: as §1

T3 sequence (Q9NY57 whole entry): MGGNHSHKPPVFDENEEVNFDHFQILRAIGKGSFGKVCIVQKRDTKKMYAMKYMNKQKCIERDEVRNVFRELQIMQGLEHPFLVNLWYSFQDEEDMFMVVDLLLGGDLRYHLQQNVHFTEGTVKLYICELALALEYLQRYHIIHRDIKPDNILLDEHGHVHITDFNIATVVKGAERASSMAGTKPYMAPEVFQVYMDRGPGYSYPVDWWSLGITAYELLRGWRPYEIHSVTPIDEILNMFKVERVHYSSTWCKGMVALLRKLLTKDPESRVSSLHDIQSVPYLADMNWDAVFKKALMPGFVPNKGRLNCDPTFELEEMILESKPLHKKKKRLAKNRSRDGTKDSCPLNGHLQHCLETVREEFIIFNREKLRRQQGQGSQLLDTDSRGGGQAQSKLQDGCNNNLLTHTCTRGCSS
T1 sequence (P41240 whole entry): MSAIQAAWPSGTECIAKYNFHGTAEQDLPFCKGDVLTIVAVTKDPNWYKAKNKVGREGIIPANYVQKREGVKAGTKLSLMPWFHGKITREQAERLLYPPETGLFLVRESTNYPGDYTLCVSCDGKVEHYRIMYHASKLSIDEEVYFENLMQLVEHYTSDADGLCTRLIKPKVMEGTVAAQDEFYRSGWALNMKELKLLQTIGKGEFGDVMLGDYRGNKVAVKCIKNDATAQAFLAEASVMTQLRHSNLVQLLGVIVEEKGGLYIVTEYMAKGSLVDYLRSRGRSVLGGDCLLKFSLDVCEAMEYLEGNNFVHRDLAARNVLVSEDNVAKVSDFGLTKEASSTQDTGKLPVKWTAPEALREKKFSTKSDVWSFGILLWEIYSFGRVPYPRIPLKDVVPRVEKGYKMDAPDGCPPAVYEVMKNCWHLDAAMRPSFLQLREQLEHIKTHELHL
T4 sequence (P07949 29-1114 V804L): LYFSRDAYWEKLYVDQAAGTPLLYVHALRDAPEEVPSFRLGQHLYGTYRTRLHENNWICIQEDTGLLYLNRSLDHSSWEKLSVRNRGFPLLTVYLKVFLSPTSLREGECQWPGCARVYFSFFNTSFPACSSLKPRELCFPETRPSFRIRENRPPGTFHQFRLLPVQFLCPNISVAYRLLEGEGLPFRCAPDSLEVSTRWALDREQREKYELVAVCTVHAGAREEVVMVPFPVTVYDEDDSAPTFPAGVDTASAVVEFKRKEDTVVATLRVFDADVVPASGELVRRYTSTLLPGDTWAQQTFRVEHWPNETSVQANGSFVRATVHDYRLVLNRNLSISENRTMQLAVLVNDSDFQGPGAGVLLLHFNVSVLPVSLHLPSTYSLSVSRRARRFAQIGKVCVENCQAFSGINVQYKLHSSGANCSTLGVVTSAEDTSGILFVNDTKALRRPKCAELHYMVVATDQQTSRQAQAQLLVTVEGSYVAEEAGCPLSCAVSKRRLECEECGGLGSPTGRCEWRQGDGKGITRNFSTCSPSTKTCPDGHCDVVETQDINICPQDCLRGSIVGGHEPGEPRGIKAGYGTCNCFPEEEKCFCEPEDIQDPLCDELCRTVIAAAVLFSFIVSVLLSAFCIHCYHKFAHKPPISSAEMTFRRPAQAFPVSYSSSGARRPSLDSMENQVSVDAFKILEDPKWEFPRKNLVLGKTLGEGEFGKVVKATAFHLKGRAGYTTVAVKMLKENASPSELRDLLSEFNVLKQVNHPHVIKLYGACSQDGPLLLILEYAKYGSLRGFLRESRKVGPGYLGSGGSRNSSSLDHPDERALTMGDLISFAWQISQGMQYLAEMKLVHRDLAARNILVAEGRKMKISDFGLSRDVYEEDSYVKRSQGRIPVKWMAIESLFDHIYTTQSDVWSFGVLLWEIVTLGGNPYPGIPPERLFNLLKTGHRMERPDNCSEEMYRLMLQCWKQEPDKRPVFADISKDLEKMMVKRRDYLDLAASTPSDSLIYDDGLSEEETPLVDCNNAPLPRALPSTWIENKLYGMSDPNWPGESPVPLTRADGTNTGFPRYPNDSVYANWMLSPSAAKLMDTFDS
T2 sequence (Q8TDR2 whole entry): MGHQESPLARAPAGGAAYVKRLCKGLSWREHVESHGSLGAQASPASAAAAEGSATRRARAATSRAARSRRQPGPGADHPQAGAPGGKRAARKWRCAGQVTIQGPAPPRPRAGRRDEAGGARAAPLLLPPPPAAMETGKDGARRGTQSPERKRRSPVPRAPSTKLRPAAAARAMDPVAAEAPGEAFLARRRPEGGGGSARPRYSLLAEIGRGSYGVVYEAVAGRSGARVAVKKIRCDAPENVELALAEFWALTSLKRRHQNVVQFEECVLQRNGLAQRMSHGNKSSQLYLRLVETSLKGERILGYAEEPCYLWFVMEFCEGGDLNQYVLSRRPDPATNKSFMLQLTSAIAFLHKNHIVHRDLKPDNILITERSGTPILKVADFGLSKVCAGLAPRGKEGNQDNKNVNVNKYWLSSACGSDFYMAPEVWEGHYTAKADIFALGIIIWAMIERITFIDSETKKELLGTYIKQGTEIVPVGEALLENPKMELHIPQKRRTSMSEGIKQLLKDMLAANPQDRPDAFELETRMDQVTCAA

Structure (SMILES) | KINOMEscan: CSK (panel of 442 kinases [1]) | % Ctrl, STK35 (panel of 442 kinases [2]) [% Ctrl] | % Ctrl, YANK2 (panel of 442 kinases [3]) [% Ctrl] | KINOMEscan: RET(V804L) (panel of 442 kinases [4])
COc1cc(C(=O)N2CCC(N3CCN(C)CC3)CC2)ccc1Nc1ncc2c(n1)N(C)c1ccccc1C(=O)N2C [15 (LRRK2-IN-1)] | 90 | 100 | 100 | 89
CCOc1cc(C(=O)N2CCC(N3CCN(C)CC3)CC2)ccc1Nc1ncc2c(n1)N(C1CCCC1)c1ccccc1C(=O)N2C [Compound 26] | 100 | 96 | 100 | 100
COc1cc(C(=O)N2CCC(N3CCN(C)CC3)CC2)ccc1Nc1ncc2c(n1)N1CCc3cccc(c31)C(=O)N2C [Compound 24] | 75 | 100 | 100 | 77
COc1cc(C(=O)N2CCC(N3CCN(C)CC3)CC2)ccc1Nc1ncc2c(n1)N(C1CCCC1)c1ccccc1C(=O)N2C [Compound 25, 11-cyclopentyl-2-((2-methoxy-4-(4-(4-methylpiperazin-1-yl)piperidine-1-carbonyl)phenyl)amino)-5-methyl-5H-benzo[e]pyrimido[5,4-b][1,4]diazepin-6(11H)-one] | 74 | 100 | 100 | 100
